Data on 4 compounds can be found in patent US4684649A, “Quinoxaline derivatives useful for treatment and prophylaxis of swine dysentery and as animal growth promotants” (priority 1985, dated 1987).

In general, MIC refers to the lowest concentration that inhibits growth of the organism.

Series [1] deals with Treponema hyodysenteriae. The series can be described thus: in vitro antibacterial activity (MIC) against Treponema hyodysenteriae. In kind it is cell-based. The conditions noted are these: Brachyspira hyodysenteriae, growth medium with about 5% bovine blood and about 3% tryptose agar. As for the experimental part:
MIC's against Treponema hyodysenteriae were determined by spreading appropriate dilutions of the microorganism on a growth medium containing about 5% bovine blood and about 3% tryptose agar.
Among the compounds of structure I subjected to in vitro screening were the following in which R and R1 have the above meaning.

For series [2], the system named is Salmonella Typhimurium. Particulars: Ames test; prior art compound; cited from earlier work. On the technique in general: In the Ames test, an excess of revertant colonies over the control signals mutagenicity.
Series [3] relates to Salmonella Typhimurium TA 1535. Put plainly: Ames test, in the absence of microsomial extract, strain TA 1535. It is filed as cell-based. From the text:
(§1) Mutation Test determined according to the "Ames test"
(§2) (B.N. Ames et al. Mutation Research 31, page 347, 1975).
(§3) The compound 2-[bis-(1'-hydroxy-3'-t-butyl-4'-methoxy-phenyl-2')-methyl-quinoxaline-1,4-dioxide prepared according to Example 1 was submitted to the Ames test showing the results summarized in the following two tables: […]

For series [4], the system named is Salmonella Typhimurium TA 1538. The series can be described thus: Ames test, in the presence of microsomial extract, strain TA 1538. In kind it is cell-based.
From the text: as §1, §2, §3

Series [5] relates to Salmonella Typhimurium TA 98. The series can be described thus: Ames test, in the presence of microsomial extract, strain TA 98. It is filed as cell-based.
From the text: as §1, §2, §3

Series [6] relates to Salmonella Typhimurium TA 1538. The series can be described thus: Ames test, in the absence of microsomial extract, strain TA 1538. In kind it is cell-based.
From the text: as §1, §2, §3

Series [7] relates to Salmonella Typhimurium TA 98. The series can be described thus: Ames test, in the absence of microsomial extract, strain TA 98. It is filed as cell-based.
From the text: as §1, §2, §3

Series [8] relates to Salmonella Typhimurium TA 100. The series can be described thus: Ames test, in the absence of microsomial extract, strain TA 100. It is filed as cell-based.
From the text: as §1, §2, §3

The test system of series [9] is Salmonella Typhimurium TA 1535. The series can be described thus: Ames test, in the presence of microsomial extract, strain TA 1535. It is filed as cell-based.
From the text: as §1, §2, §3

For series [10], the system named is Salmonella Typhimurium TA 100. Put plainly: Ames test, in the presence of microsomial extract, strain TA 100. In kind it is cell-based.
From the text: as §1, §2, §3

In series [11] the test system is Treponema hyodysenterae. The series can be described thus: medicated feed in pigs exposed to Treponema hyodysenterae infections (swine dysentery). In kind it is in vivo. The text has this: Compound of Example 1 was mixed with the swine balanced feed described on page 8 at the ratio of 200 grams/ton. A group of 30 pigs was fed with this medicated diet. An equivalent group of pigs was used as control. The two groups were stabled in pigsties where infections of Treponema hyodysenterae have been observed. No one of the animals under treatment was getting ill, while the 50% of the untreated animals in the control group was clearly showing typical symptoms of swine dysentery.

The nature of series [12]: growth promotion and feed efficiency in pigs. In kind it is in vivo. The conditions noted are these: 28 days, 200 grams/ton in diet. The text has this:
The efficacy of compound of Example 1 in promoting growth and improving the feed efficiency is illustrated below. 20 healthy pigs of same age and of average same weight were divided into two groups. One group of 10 pigs served as control and was fed a basal non-supplemented diet, the other group of 10 pigs received the same basal diet, but supplemented with 200 grams/ton of compound of Example 1.

Series [13] can be described thus: solubility.

In brackets after ≈: the same amount, converted by molar mass.

`COc1ccc(O)c(C(c2c(O)ccc(OC)c2C(C)C)c2c[n+]([O-])c3ccccc3[n+]2[O-])c1C(C)C` [Example 2, 2-[bis(1'-hydroxy-3'-i-propyl-4'-methoxy-phenyl-2')-methyl]-quinoxaline-1,4-dioxide] returned an MIC in [1] of 0.9 µg/mL (≈ 1.78 µM).

For the compound `COC(=O)NN=Cc1c[n+]([O-])c2ccccc2[n+]1[O-]` [carbadox, 2-formyl-quinoxaline-1,4-dioxide carbomethoxyhydrazone], the mutagenic effect entry in series [2] is recorded as “substantial mutagenic effect”.

Consider `[N-]=[N+]=[N-]` [sodium azide, reference compound], for which the “Number of mutating colonies/plate” value in series [3] (TA 1535, 10 mcg) was 1006 mutating colonies/plate; in series [4] (TA 1538, 10 mcg) it was 2258 mutating colonies/plate; in series [5] (TA 98, 10 mcg), 1803 mutating colonies/plate.

Consider `COc1ccc(O)c(C(c2c(O)ccc(OC)c2C(C)(C)C)c2c[n+]([O-])c3ccccc3[n+]2[O-])c1C(C)(C)C` [Example 1, 2-[bis(1'-hydroxy-3'-t-butyl-4'-methoxy-phenyl-2')-methyl]-quinoxaline-1,4-dioxide], for which inhibition of growth in [1] (MIC) required 0.1 µg/mL (≈ 0.188 µM). Moreover, the “Number of mutating colonies/plate” value in series [6] (TA 1538, 10 mcg) is given as 11 mutating colonies/plate; in series [6] (TA 1538, 30 mcg) it was 16 mutating colonies/plate; in series [6] (TA 1538, 100 mcg), 15 mutating colonies/plate; in series [6] (TA 1538, 300 mcg) it was 10 mutating colonies/plate; in series [6] (TA 1538, 600 mcg), 17 mutating colonies/plate; in series [6] (TA 1538, 1000 mcg) it was 17 mutating colonies/plate. The “Number of mutating colonies/plate” value in series [3] (TA 1535, 10 mcg) is listed as 15 mutating colonies/plate; in series [3] (TA 1535, 30 mcg) it was 12 mutating colonies/plate; in series [3] (TA 1535, 100 mcg), 9 mutating colonies/plate; in series [3] (TA 1535, 300 mcg), 13 mutating colonies/plate; in [3] (TA 1535, 600 mcg), 25 mutating colonies/plate; in series [3] (TA 1535, 1000 mcg) it was 16 mutating colonies/plate. Further, the “Number of mutating colonies/plate” value is reported as 25 mutating colonies/plate in series [7] (TA 98, 10 mcg); 24 mutating colonies/plate in [7] (TA 98, 30 mcg); 27 mutating colonies/plate in series [7] (TA 98, 100 mcg); 24 mutating colonies/plate in series [7] (TA 98, 300 mcg); 27 mutating colonies/plate in series [7] (TA 98, 600 mcg); 27 mutating colonies/plate in series [7] (TA 98, 1000 mcg). Besides, the “Number of mutating colonies/plate” value in series [8] (TA 100, 10 mcg) was 168 mutating colonies/plate; in series [8] (TA 100, 30 mcg) it was 165 mutating colonies/plate; in series [8] (TA 100, 100 mcg), 151 mutating colonies/plate; in [8] (TA 100, 300 mcg) it was 162 mutating colonies/plate; in [8] (TA 100, 600 mcg), 177 mutating colonies/plate; in series [8] (TA 100, 1000 mcg), 142 mutating colonies/plate. The “Number of mutating colonies/plate” value is listed as 16 mutating colonies/plate in [4] (TA 1538, 10 mcg); 14 mutating colonies/plate in [4] (TA 1538, 30 mcg); 15 mutating colonies/plate in series [4] (TA 1538, 100 mcg); 8 mutating colonies/plate in [4] (TA 1538, 300 mcg); 18 mutating colonies/plate in [4] (TA 1538, 600 mcg); 14 mutating colonies/plate in [4] (TA 1538, 1000 mcg). Besides, the “Number of mutating colonies/plate” value in series [9] (TA 1535, 10 mcg) is reported as 23 mutating colonies/plate; in series [9] (TA 1535, 30 mcg) it was 26 mutating colonies/plate; in series [9] (TA 1535, 100 mcg) it was 22 mutating colonies/plate; in [9] (TA 1535, 300 mcg), 16 mutating colonies/plate; in series [9] (TA 1535, 600 mcg) it was 22 mutating colonies/plate; in [9] (TA 1535, 1000 mcg) it was 20 mutating colonies/plate. For the same compound, the “Number of mutating colonies/plate” value is 30 mutating colonies/plate in [5] (TA 98, 10 mcg); 27 mutating colonies/plate in series [5] (TA 98, 30 mcg); 24 mutating colonies/plate in series [5] (TA 98, 100 mcg); 20 mutating colonies/plate in [5] (TA 98, 300 mcg); 24 mutating colonies/plate in series [5] (TA 98, 600 mcg); 28 mutating colonies/plate in series [5] (TA 98, 1000 mcg). The “Number of mutating colonies/plate” value was 158 mutating colonies/plate in [10] (TA 100, 10 mcg); 143 mutating colonies/plate in [10] (TA 100, 30 mcg); 135 mutating colonies/plate in series [10] (TA 100, 100 mcg); 174 mutating colonies/plate in series [10] (TA 100, 300 mcg); 175 mutating colonies/plate in series [10] (TA 100, 600 mcg); 125 mutating colonies/plate in [10] (TA 100, 1000 mcg). For the same compound, the “animals under treatment getting ill” value in series [11] (200 grams/ton of feed, 30 pigs, control group 50% ill) is “No one”. For the same compound, the “recovery of the infected animals” value in [11] (after 2 weeks of treatment with medicated feed, 200 grams/ton) is “recovered completely”. In addition, the “increase in feed efficiency over the controls” value in [12] was 5,5%. For the same compound, in series [12] (versus control ration), the “body weight increase over control (heavier on average)” value is reported as 4,6%. The solubility entry in [13] (in acetone) is “slightly soluble”; in [13] (in benzene), “slightly soluble”; in [13] (in dimethylformamide) it was “soluble”; in [13] (in dioxane) it was “soluble”; in series [13] (in methanol), “slightly soluble”; in series [13] (in tetrahydrofuran), “soluble”. Further, in series [13] (in water), the solubility entry is recorded as “very scarcely soluble”.
